The source made the active and inactive calls. The calls are words filed in the database; no cut-off is given here.
What was measured:
Mus musculus [1] = assay: Increase in human F9 nonsense R338X mutant antigen level per 100 ul of plasma in C57B/6J mouse model at 28 mg/kg, sc administered daily for 2 days after 9 hrs by ELISA; type: functional; details: route subcutaneous
Mus musculus [2] = assay: Increase in human F9 nonsense R338X mutant antigen coagulant activity in C57B/6J mouse plasma at 14 mg/kg, sc administered daily for 2 days after 2 hrs; type: functional; details: route subcutaneous
Mus musculus [3] = assay: Increase in human F9 nonsense R338X mutant antigen coagulant activity in C57B/6J mouse plasma at 28 mg/kg, sc administered daily for 7 days after 3 hrs by ELISA; details: route subcutaneous
Mus musculus [4] = assay: Increase in human F9 nonsense R338X mutant antigen coagulant activity in C57B/6J mouse plasma at 28 mg/kg, sc administered daily for 7 days after 9 hrs by ELISA; type: functional; details: route subcutaneous
Mus musculus [5] = assay: Increase in human F9 nonsense R338X mutant antigen coagulant activity in C57B/6J mouse plasma at 28 mg/kg, sc administered daily for 2 days after 9 hrs; type: functional; details: route subcutaneous
[6] = Toxicity in C57BL/6J hemophilia B mouse model at 28 mg/kg, sc; type: organism-based; set-up: dose 28 mg/kg, route subcutaneous; details: in vivo
Mus musculus [7] = assay: Increase in human F9 nonsense R338X mutant antigen level per 100 ul of plasma in C57B/6J mouse model at 7 mg/kg, sc administered daily for 2 days after 2 hrs by ELISA; type: functional; details: route subcutaneous
Mus musculus [8] = assay: Increase in human F9 nonsense R338X mutant antigen coagulant activity in C57B/6J mouse plasma at 28 mg/kg, sc administered daily for 7 days after 9 hrs by ELISA
Mus musculus [9] = assay: Increase in human F9 nonsense R338X mutant antigen level per 100 ul of plasma in C57B/6J mouse model at 28 mg/kg, sc administered daily for 2 days after 2 hrs by ELISA; type: functional; details: route subcutaneous
Mus musculus [10] = assay: Increase in human F9 nonsense R338X mutant antigen level per 100 ul of plasma in C57B/6J mouse model at 14 mg/kg, sc administered daily for 2 days after 2 hrs by ELISA; type: functional; details: route subcutaneous
Mus musculus [11] = assay: Increase in human F9 nonsense R338X mutant antigen coagulant activity in C57B/6J mouse plasma at 28 mg/kg, sc administered daily for 2 days after 2 hrs; type: functional; details: route subcutaneous
Mus musculus [12] = assay: Increase in human F9 nonsense R338X mutant antigen level per 100 ul of plasma in C57B/6J mouse model at 42 mg/kg, sc administered daily for 2 days after 9 hrs by ELISA; type: functional; details: route subcutaneous
Mus musculus [13] = assay: Increase in human F9 nonsense R338X mutant antigen coagulant activity in C57B/6J mouse plasma at 42 mg/kg, sc administered daily for 2 days after 9 hrs; type: functional; details: route subcutaneous
[14] = Elimination half life in C57BL/6J hemophilia B mouse model liver at 28 mg/kg, sc for 2 days; type: ADME, organism-based; set-up: dose 28 mg/kg, route subcutaneous
[15] = Half life in C57BL/6J hemophilia B mouse model at 28 mg/kg, sc for 2 days; type: ADME, organism-based; set-up: dose 28 mg/kg, route subcutaneous; details: in vivo
Mus musculus [16] = assay: Increase in human F9 nonsense R338X mutant antigen coagulant activity in C57B/6J mouse plasma at 7 mg/kg, sc administered daily for 2 days after 2 hrs; type: functional; details: route subcutaneous

CN[C@@H]1[C@@H](O)[C@@H](O[C@@H]2[C@@H](O)[C@H](O[C@H]3O[C@H]([C@@H](C)O)[C@@H](O)[C@H](O)[C@H]3N)[C@@H](N)C[C@H]2N)OC[C@]1(C)O [GENETICIN]
Activity (Mus musculus [1]): 27.28 ng
Activity (Mus musculus [2]): 6.18%
Activity (Mus musculus [3]): 22.8 ng
Activity (Mus musculus [4]): 43.9 ng
Activity (Mus musculus [5]): 8.03%
LD50 [6]: 1300 mg/kg
Activity (Mus musculus [7]): 2.28 ng
Activity (Mus musculus [8]): Active
Activity (Mus musculus [9]): 8.75 ng
Activity (Mus musculus [10]): 5.79 ng
Activity (Mus musculus [11]): 6.94%
Activity (Mus musculus [12]): 13.57 ng
Activity (Mus musculus [13]): 4.98%
half-life [14]: 80 h
half-life [15]: 0.25 h
Activity (Mus musculus [16]): 4.55%
